Entries after “also recorded” stand apart in the source; their conditions may differ.
How the values were obtained:
male Sprague-Dawley rats [1] = experiment: Suture-induced MCAO (30 minutes) followed by 5.5 hours of reperfusion, infarct volume by TTC staining; format: in vivo, rat; details: for infarct size / neuroprotection (infarct volume): 5.5 hours reperfusion; for infarct size: p<0.05, FIG. 7; for neuroprotection (infarct volume): inosine 16 mg/kg after 30 mins of occlusion prior to suture removal; for neuroprotective effect (infarct volume): vs vehicle, FIG. 9
male Sprague-Dawley rats [2] = experiment: Suture-induced "permanent" (6-hour) MCAO, infarct volume by TTC staining; format: in vivo, rat; details: for infarct size: p<0.05, FIG. 6

CC1=NN(c2ccccc2)C(=O)C1 [edaravone]
infarct size (male Sprague-Dawley rats [1]; edaravone 5, 10 or 20 mg/kg i.v. after 30 minutes of MCAO (immediately prior to suture removal), vs 50% DMSO in saline): significant decreases in infarct size; also recorded: showed neuroprotective abilities | infarct size (male Sprague-Dawley rats [1]; edaravone 5, 10 or 20 mg/kg i.v. after 30 minutes of MCAO (immediately prior to suture removal), vs 50% DMSO in saline, listed as Edaravone): very powerful neuroprotection | infarct size (male Sprague-Dawley rats [2]; edaravone 10, 20 or 40 mg/kg i.v. 30 minutes prior to 6 hours of suture induced-MCAO, vs vehicle 50% DMSO in saline): significant decreases in infarct size; also recorded: significant levels of neuroprotection

OC[C@H]1O[C@@H](n2cnc3c(O)ncnc32)[C@H](O)[C@@H]1O [inosine]
neuroprotection (infarct volume) (male Sprague-Dawley rats [1]; FIG. 8): No neuroprotection | neuroprotection (infarct volume) (male Sprague-Dawley rats [1]; FIG. 8, listed as Inosine): did not cause neuroprotection

Nc1nc2c(ncn2[C@@H]2O[C@H](CO)[C@@H](O)[C@H]2O)c(=O)[nH]1 [guanosine]
neuroprotective effect (infarct volume) (male Sprague-Dawley rats [1]; guanosine 16 mg/kg injected 30 minutes (+30) after occlusion, immediately prior to suture removal): greatest benefit; also recorded: most prominent | neuroprotective effect (infarct volume) (male Sprague-Dawley rats [1]; guanosine 16 mg/kg injected 60 minutes (+60) from start of MCAO, 30 minutes post-suture removal): significant benefit; also recorded: significant neuroprotection | infarct volume (male Sprague-Dawley rats [1]; guanosine 1, 2, 4, 8 or 16 mg/kg intraperitoneally 30 minutes after MCAO (prior to suture removal), 5.5 h reperfusion, FIG. 8): dose-dependent decrease in infarct volume | infarct volume (male Sprague-Dawley rats [2]; guanosine 1, 2, 4, 8 or 16 mg/kg intraperitoneally 30 minutes prior to "permanent" (6-hour) occlusion, FIG. 8): decrease in infarct volume; also recorded: reduced infarct size

estrogen
infarct size (male Sprague-Dawley rats [1]; estrogen 1×10-2 mg/kg i.v. 30 minutes after MCAO (immediately prior to suture removal), vs saline): significant decrease in infarct size | infarct size (male Sprague-Dawley rats [1]; estrogen 1×10-2 mg/kg i.v. 30 minutes after MCAO (immediately prior to suture removal), vs saline, listed as Estrogen): showed neuroprotective abilities | infarct size (male Sprague-Dawley rats [2]; estrogen 1×10-2 mg/kg i.v. 30 minutes prior to 6 hours of suture induced-MCAO, vs estrogen vehicle (saline)): significant decrease in infarct size; also recorded: significant levels of neuroprotection

Reference: patent publication US9086405B2, “Animal stroke model” (UNIVERSITY OF PRINCE EDWARD ISLAND, priority 2010, dated 2015)
